Reference: article PMC5418314, “First-in-human phase I study of SOR-C13, a TRPV6 calcium channel inhibitor, in patients with advanced solid tumors” (Investigational New Drugs, 2017)
Ends that are not written are not given here.

Legend:
[1] = test system: advanced solid tumors of epithelial origin; assay: Phase I anti-tumor activity (RECIST 1.1); format: in vivo, human
Procedure: (§1) Anti-tumor activity was evaluated by radiologic assessment of tumor size according to the New Response Evaluation Criteria in Solid Tumors (RECIST), Revised Guideline Version 1.1 [20] and changes in tumor-specific biomarker levels. The baseline radiologic assessment was performed ≤30 days prior to the first SOR-C13 dose. Tumor response was assessed after two cycles of treatment (between Days 15–21 of Cycle 2). For patients receiving additional cycles, tumor response was assessed after every 2 additional cycles, or earlier at the investigator’s discretion or as required by standard of care at the site.

ovarian cancer xenograft = assay: xenograft model of ovarian cancer, tumor inhibition; format: in vivo
CA 19–9 = CA 19–9 tumor biomarker levels in pancreatic cancer patients; format: in vivo, human
Procedure: as §1
For pharmacodynamic information changes of the plasma biomarkers ‘cleaved cytokeratin 18’, (ccK18) and TRPV6 mRNA levels, in response to treatment, were evaluated. Blood samples for the assessment of ccK18, TRPV6 mRNA or other tumor-specific biomarkers were collected within 24 h prior to the first infusion of SOR-C13, on Day 1 of Cycle 2, once between Days 15–21 of Cycle 2, during additional cycles, and at the Month 1 follow-up. We set a low basal level of ccK18 as 250 U/L as a cut-off point representing the 95th percentile median of healthy volunteers (Peviva M30 Apoptosense ELISA assay product literature).

TRPV6 = settings: read-out: IC50, inhibition of TRPV6; cited from earlier work
Text: SOR-C13 is a short segment (13-mer) from the C-terminus of a paralytic peptide soricidin (accession number P0C2P6) discovered in the saliva of the Northern Short-tailed shrew (Blarina brevicauda), abundant in eastern North America. While not paralytic themselves, C-series peptides blocked calcium uptake by ovarian cancer cells in in vitro studies. […] TRPV6 is predominantly found in non-excitable tissues wi ...

breast cancer xenograft = assay: xenograft model of breast cancer, tumor inhibition; format: in vivo

**Q.** For KEFLHPSKVDLPR [SOR-C13], which “patients with stable disease after two cycles” value ([1]; 1.375 mg/kg, 90-min infusion) is on record?
**A.** The value was “two out of the three patients”.

**Q.** What about the “patients with stable disease” value ([1]; 12 of 22 evaluable patients, after two cycles, RECIST 1.1) of the same sequence?
**A.** The value was 54.5%.

**Q.** What about the “patients with stable disease after 2 cycles” value ([1]; ovarian cancer (OVca) patients) of the same sequence?
**A.** The value was “two of the four”.

**Q.** What about the “duration of stable disease” value ([1]; pancreatic cancer patient, 2.75 mg/kg, 90-min infusions) of the same sequence?
**A.** The value was “four cycles”.

**Q.** What about the “duration of stable disease” value ([1]; pancreatic cancer patient, 6.2 mg/kg, 90-min infusions) of the same sequence?
**A.** Its value is “over 10 cycles”.

**Q.** What about the “reduction from baseline in the sum of tumor diameters” value ([1]; pancreatic cancer patient, 6.2 mg/kg, 90-min infusions, after 4 cycles) of the same sequence?
**A.** The value was 27%.

**Q.** What about the “duration of stable disease (cycles received)” value ([1]; patient with adenoid cystic carcinoma of the tongue, 4.13 mg/kg) of the same sequence?
**A.** The value was 18 cycles.

**Q.** What about the inhibition of tumors (ovarian cancer xenograft) of the same sequence?
**A.** The inhibition of tumors was “effective”.

**Q.** And the “decrease in CA 19–9” value (CA 19–9; pancreatic cancer patient treated at 6.25 mg/kg, after cycle 2)?
**A.** The value was 29%.

**Q.** And the “decrease in CA 19–9” value (CA 19–9; pancreatic cancer patient, 6.2 mg/kg, after cycle 4)?
**A.** Its value is 55%.

**Q.** What about the IC50 (TRPV6) of the same sequence?
**A.** The IC50 was 14 nM.

**Q.** And the inhibition of tumors (breast cancer xenograft)?
**A.** The inhibition of tumors was “effective”.
